Literature values as cited in publication PMC6155437 (Molecules : A Journal of Synthetic Chemistry and Natural …, 2017).

Assays:
[1] = target: CYP3A4 (Homo sapiens, UniProt P08684); conditions: CYP3A4 activity; cited from earlier work
[2] = target: T1, CYP2B6 (Homo sapiens, UniProt P20813); set-up: method as in doi:10.1007/s11419-011-0112-7; conditions: CYP2B6 activity; cited from earlier work
T1 construct: pooled human liver microsomes (0.2 mg/mL); tissue Corning Life Sciences; host or cells: pooled human liver microsomes (150 donors)
T1 sequence (P20813 1-491): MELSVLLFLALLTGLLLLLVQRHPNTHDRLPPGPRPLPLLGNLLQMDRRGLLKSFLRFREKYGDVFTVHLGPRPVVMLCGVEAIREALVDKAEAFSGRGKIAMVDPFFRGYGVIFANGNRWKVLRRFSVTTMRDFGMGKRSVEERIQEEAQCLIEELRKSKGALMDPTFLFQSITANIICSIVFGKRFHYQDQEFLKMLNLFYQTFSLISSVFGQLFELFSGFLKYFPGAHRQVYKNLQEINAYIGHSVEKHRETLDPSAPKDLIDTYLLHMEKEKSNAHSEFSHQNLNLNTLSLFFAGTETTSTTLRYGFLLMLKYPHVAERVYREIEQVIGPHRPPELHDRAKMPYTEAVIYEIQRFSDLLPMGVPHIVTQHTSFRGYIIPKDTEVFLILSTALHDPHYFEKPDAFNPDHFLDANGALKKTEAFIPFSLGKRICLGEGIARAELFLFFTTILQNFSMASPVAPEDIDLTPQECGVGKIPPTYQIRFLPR

[3] = target: T2, CYP2C9 (Homo sapiens, UniProt P11712); set-up: method as in PMID 22166891; conditions: CYP2C9-catalyzed diclofenac hydroxylation in human liver microsomes; cited from earlier work
T2 construct: tissue Corning Life Sciences; host or cells: pooled human liver microsomes (150 donors)
T2 sequence (P11712 whole entry): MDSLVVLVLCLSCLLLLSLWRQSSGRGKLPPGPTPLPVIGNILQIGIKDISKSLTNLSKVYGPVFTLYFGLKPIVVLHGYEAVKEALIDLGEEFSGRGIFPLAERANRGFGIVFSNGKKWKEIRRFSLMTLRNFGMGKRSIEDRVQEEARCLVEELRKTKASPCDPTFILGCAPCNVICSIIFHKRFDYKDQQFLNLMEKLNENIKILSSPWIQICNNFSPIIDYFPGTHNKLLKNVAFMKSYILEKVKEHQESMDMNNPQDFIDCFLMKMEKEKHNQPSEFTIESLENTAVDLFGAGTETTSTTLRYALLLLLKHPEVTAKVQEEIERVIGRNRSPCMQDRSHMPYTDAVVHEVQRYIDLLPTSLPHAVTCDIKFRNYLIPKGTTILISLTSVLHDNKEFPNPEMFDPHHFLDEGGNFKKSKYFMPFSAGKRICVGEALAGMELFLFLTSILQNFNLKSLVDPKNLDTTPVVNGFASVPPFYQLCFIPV

Sequence of CYP3A4 (P08684 whole entry): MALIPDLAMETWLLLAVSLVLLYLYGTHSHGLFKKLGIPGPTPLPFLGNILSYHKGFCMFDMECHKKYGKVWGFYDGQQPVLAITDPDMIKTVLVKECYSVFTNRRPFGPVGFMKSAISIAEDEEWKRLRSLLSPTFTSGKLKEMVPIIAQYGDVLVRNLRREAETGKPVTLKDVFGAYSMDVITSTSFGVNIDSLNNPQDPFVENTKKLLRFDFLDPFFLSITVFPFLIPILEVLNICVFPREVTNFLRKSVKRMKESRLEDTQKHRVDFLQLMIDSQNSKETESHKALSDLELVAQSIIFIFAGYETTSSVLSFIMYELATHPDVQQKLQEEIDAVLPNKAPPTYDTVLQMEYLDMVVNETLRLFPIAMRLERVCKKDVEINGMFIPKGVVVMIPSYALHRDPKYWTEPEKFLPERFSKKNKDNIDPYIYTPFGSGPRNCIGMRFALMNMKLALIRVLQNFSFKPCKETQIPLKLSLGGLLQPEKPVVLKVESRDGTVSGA

SMILES	IC50 [1] [µM]	Ki [2] [µM]	Ki [3] [µM]
CCCCCc1cc(O)c2c(c1)OC(C)(C)[C@@H]1CCC(C)=C[C@@H]21 [THC, Δ9-tetrahydrocannabinol]	> 50	2.81	1.31
CCCCCc1cc(O)c2c(c1)OC(C)(C)c1ccc(C)cc1-2 [cannabinol]	> 50	–	–
